According to US10588317B2, “Isoxazoline-substituted benzamides and analogues as insecticides” (priority 2015, dated 2020):

Legend:
Assay type in all cases: in vivo
Spodoptera littoralis [1] = assay: Spodoptera littoralis (Egyptian cotton leaf worm), uptake by lettuce roots from agar; details: 144 h, read-out: effect in at least one of the three categories (mortality, anti-feeding, or growth inhibition);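 also: 12.5 ppm test rate in agar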
Outline: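 Systemic test: Spodoptera eggs placed on lettuce leaves from seedlings raised 7 days on agar containing the compound (diluted from 10'000 ppm DMSO stock). Six days after infestation, larvae scored against untreated controls for mortality, feeding deterrence and growth inhibition.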

Myzus persicae = Myzus persicae (green peach aphid): feeding/contact activity; details: 144 h, application rate 200 ppm, aphid population of mixed ages, 6 days after infestation, read-out: mortality
Method: (§1) Sunflower leaf discs were placed onto agar in a 24-well microtiter plate and sprayed with aqueous test solutions prepared from 10'000 ppm DMSO stock solutions. After drying, the leaf discs were infested with an aphid population of mixed ages. The samples were assessed for mortality 6 days after infestation.

Thrips tabaci = Thrips tabaci (onion thrips): feeding/contact activity; details: 144 h, application rate 200 ppm, Thrips population of mixed ages, 6 days after infestation, read-out: mortality
Method: as §1, with “on” for “onto”, “in” for “in a”, “plates” for “plate”, “drying” for “drying,”, “a Thrips” for “an aphid”

Tetranychus urticae = Tetranychus urticae (two-spotted spider mite): feeding/contact activity; details: 192 h, application rate 200 ppm, mixed population (mobile stages), 8 days after infestation, read-out: mortality
Method: Bean leaf discs on agar in 24-well microtiter plates were sprayed with aqueous test solutions prepared from 10'000 ppm DMSO stock solutions. After drying the leaf discs were infested with a mite population of mixed ages. The samples were assessed for mortality on mixed population (mobile stages) 8 days after infestation.

Spodoptera littoralis [2] = assay: Spodoptera littoralis (Egyptian cotton leaf worm), sprayed cotton leaf discs; details: foliar, 72 h, application rate 200 ppm, L1 larvae, 3 days after infestation, read-out: control (mortality, anti-feeding effect, growth inhibition)
Outline: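 Five first-instar larvae placed on dried cotton leaf discs (on agar) previously sprayed with aqueous dilutions of 10'000 ppm DMSO stocks. Scored at 3 days against untreated discs for mortality, feeding inhibition and growth inhibition; any category above untreated counts as control.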

Euschistus heros = Euschistus heros (neotropical brown stink bug), sprayed soybean leaves; details: 120 h, application rate 200 ppm, N2 nymphs, 5 days after infestation, read-out: effect in at least one of the two categories (mortality or growth inhibition)
Outline: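 Scored 5 days post-infestation versus untreated controls, for both mortality and growth inhibition: N2 nymphs placed on agar-mounted soybean leaves previously sprayed at 200 ppm with aqueous test solutions from DMSO stocks and left to dry.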

Plutella xylostella = Plutella xylostella (diamond back moth), artificial diet; details: 120 h, application rate 200 ppm, L2 larvae, 5 days after infestation, read-out: effect in at least one of the two categories (mortality or growth inhibition)
Outline: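 L2 larvae (10-15 per well) fed on compound-treated, dried artificial diet; test solutions diluted in water from 10'000 ppm DMSO stocks. Readout 5 days post-infestation as mortality or growth inhibition versus untreated diet, with at least 80% effect at 200 ppm as threshold.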

Diabrotica balteata = Diabrotica balteata (corn root worm), sprayed maize sprouts; details: 96 h, application rate 200 ppm, L2 larvae, 4 days after infestation, read-out: effect in at least one of the two categories (mortality or growth inhibition)
Outline: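 Read-out at 4 days post-infestation: mortality and growth inhibition relative to untreated samples. Test solutions (200 ppm, from DMSO stocks) were sprayed onto agar-held maize sprouts, which after drying received 6–10 L2 larvae per well.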

CCN(C)S(=O)(=O)N1C[C@@H](NC(=O)c2ccc(C3=NO[C@@](c4cc(Cl)c(F)c(Cl)c4)(C(F)(F)F)C3)cc2Cl)CO1 [Compound A131, 2-chloro-4-[(5S)-5-(3,5-dichloro-4-fluoro-phenyl)-5-(trifluoromethyl)-4H-isoxazol-3-yl]-N-[(4R)-2-[ethyl(methyl)sulfamoyl]isoxazolidin-4-yl]benzamide]
≥ 80%: percent control (mortality, anti-feedant effect or growth inhibition) at 12.5 ppm (Spodoptera littoralis [1]) | mortality at 200 ppm (Myzus persicae) | mortality at 200 ppm (Thrips tabaci) | mortality at 200 ppm (Tetranychus urticae) | mortality at 200 ppm (Spodoptera littoralis [2]) | percent effect (mortality or growth inhibition) at 200 ppm (Euschistus heros) | percent effect (mortality or growth inhibition) at 200 ppm (Plutella xylostella) | percent effect (mortality or growth inhibition) at 200 ppm (Diabrotica balteata)

CCN(C)S(=O)(=O)N1C[C@@H](NC(=O)c2ccc(C3=NO[C@@](c4cc(Cl)c(Cl)c(Cl)c4)(C(F)(F)F)C3)cc2Cl)CO1 [Compound A132, 2-chloro-N-[(4R)-2-[ethyl(methyl)sulfamoyl]isoxazolidin-4-yl]-4-[(5S)-5-(3,4,5-trichlorophenyl)-5-(trifluoromethyl)-4H-isoxazol-3-yl]benzamide]
≥ 80%: percent control (mortality, anti-feedant effect or growth inhibition) at 12.5 ppm (Spodoptera littoralis [1]) | mortality at 200 ppm (Myzus persicae) | mortality at 200 ppm (Thrips tabaci) | mortality at 200 ppm (Tetranychus urticae) | mortality at 200 ppm (Spodoptera littoralis [2]) | percent effect (mortality or growth inhibition) at 200 ppm (Euschistus heros) | percent effect (mortality or growth inhibition) at 200 ppm (Plutella xylostella) | percent effect (mortality or growth inhibition) at 200 ppm (Diabrotica balteata)

CCNS(=O)(=O)N1C[C@@H](NC(=O)c2ccc(C3=NO[C@@](c4cc(Cl)c(F)c(Cl)c4)(C(F)(F)F)C3)cc2C)CO1 [Compound A133, 4-[(5S)-5-(3,5-dichloro-4-fluoro-phenyl)-5-(trifluoromethyl)-4H-isoxazol-3-yl]-N-[(4R)-2-(ethylsulfamoyl)isoxazolidin-4-yl]-2-methyl-benzamide]
≥ 80%: percent control (mortality, anti-feedant effect or growth inhibition) at 12.5 ppm (Spodoptera littoralis [1]) | mortality at 200 ppm (Myzus persicae) | mortality at 200 ppm (Thrips tabaci) | mortality at 200 ppm (Tetranychus urticae) | mortality at 200 ppm (Spodoptera littoralis [2]) | percent effect (mortality or growth inhibition) at 200 ppm (Euschistus heros) | percent effect (mortality or growth inhibition) at 200 ppm (Plutella xylostella) | percent effect (mortality or growth inhibition) at 200 ppm (Diabrotica balteata)

CCNS(=O)(=O)N1C[C@@H](NC(=O)c2ccc(C3=NO[C@@](c4cc(Cl)cc(C(F)(F)F)c4)(C(F)(F)F)C3)cc2C)CO1 [Compound A134]
≥ 80%: percent control (mortality, anti-feedant effect or growth inhibition) at 12.5 ppm (Spodoptera littoralis [1]) | mortality at 200 ppm (Myzus persicae) | mortality at 200 ppm (Thrips tabaci) | mortality at 200 ppm (Tetranychus urticae) | mortality at 200 ppm (Spodoptera littoralis [2]) | percent effect (mortality or growth inhibition) at 200 ppm (Euschistus heros) | percent effect (mortality or growth inhibition) at 200 ppm (Plutella xylostella) | percent effect (mortality or growth inhibition) at 200 ppm (Diabrotica balteata)

CCNS(=O)(=O)N1C[C@@H](NC(=O)c2ccc(C3=NO[C@@](c4cc(Cl)cc(Cl)c4)(C(F)(F)F)C3)cc2C)CO1 [Compound A135, 4-[(5S)-5-(3,5-dichlorophenyl)-5-(trifluoromethyl)-4H-isoxazol-3-yl]-N-[(4R)-2-(ethylsulfamoyl)isoxazolidin-4-yl]-2-methyl-benzamide]
≥ 80%: percent control (mortality, anti-feedant effect or growth inhibition) at 12.5 ppm (Spodoptera littoralis [1]) | mortality at 200 ppm (Myzus persicae) | mortality at 200 ppm (Thrips tabaci) | mortality at 200 ppm (Tetranychus urticae) | mortality at 200 ppm (Spodoptera littoralis [2]) | percent effect (mortality or growth inhibition) at 200 ppm (Euschistus heros) | percent effect (mortality or growth inhibition) at 200 ppm (Plutella xylostella) | percent effect (mortality or growth inhibition) at 200 ppm (Diabrotica balteata)

CCNS(=O)(=O)N1C[C@@H](NC(=O)c2ccc(C3=NO[C@@](c4cc(Cl)c(Cl)c(Cl)c4)(C(F)(F)F)C3)cc2C)CO1 [Compound A136, N-[(4R)-2-(ethylsulfamoyl)isoxazolidin-4-yl]-2-methyl-4-[(5S)-5-(3,4,5-trichlorophenyl)-5-(trifluoromethyl)-4H-isoxazol-3-yl]benzamide]
≥ 80%: percent control (mortality, anti-feedant effect or growth inhibition) at 12.5 ppm (Spodoptera littoralis [1]) | mortality at 200 ppm (Myzus persicae) | mortality at 200 ppm (Thrips tabaci) | mortality at 200 ppm (Tetranychus urticae) | mortality at 200 ppm (Spodoptera littoralis [2]) | percent effect (mortality or growth inhibition) at 200 ppm (Euschistus heros) | percent effect (mortality or growth inhibition) at 200 ppm (Plutella xylostella) | percent effect (mortality or growth inhibition) at 200 ppm (Diabrotica balteata)

CNS(=O)(=O)N1C[C@@H](NC(=O)c2ccc(C3=NO[C@@](c4cc(Cl)c(F)c(Cl)c4)(C(F)(F)F)C3)cc2C)CO1 [Compound A137, 4-[(5S)-5-(3,5-dichloro-4-fluoro-phenyl)-5-(trifluoromethyl)-4H-isoxazol-3-yl]-2-methyl-N-[(4R)-2-(methylsulfamoyl)isoxazolidin-4-yl]benzamide]
≥ 80%: percent control (mortality, anti-feedant effect or growth inhibition) at 12.5 ppm (Spodoptera littoralis [1]) | mortality at 200 ppm (Myzus persicae) | mortality at 200 ppm (Thrips tabaci) | mortality at 200 ppm (Tetranychus urticae) | mortality at 200 ppm (Spodoptera littoralis [2]) | percent effect (mortality or growth inhibition) at 200 ppm (Euschistus heros) | percent effect (mortality or growth inhibition) at 200 ppm (Plutella xylostella) | percent effect (mortality or growth inhibition) at 200 ppm (Diabrotica balteata)

CNS(=O)(=O)N1C[C@@H](NC(=O)c2ccc(C3=NO[C@@](c4cc(Cl)cc(C(F)(F)F)c4)(C(F)(F)F)C3)cc2C)CO1 [Compound A138]
≥ 80%: percent control (mortality, anti-feedant effect or growth inhibition) at 12.5 ppm (Spodoptera littoralis [1]) | mortality at 200 ppm (Myzus persicae) | mortality at 200 ppm (Thrips tabaci) | mortality at 200 ppm (Tetranychus urticae) | mortality at 200 ppm (Spodoptera littoralis [2]) | percent effect (mortality or growth inhibition) at 200 ppm (Euschistus heros) | percent effect (mortality or growth inhibition) at 200 ppm (Plutella xylostella) | percent effect (mortality or growth inhibition) at 200 ppm (Diabrotica balteata)

CNS(=O)(=O)N1C[C@@H](NC(=O)c2ccc(C3=NO[C@@](c4cc(Cl)cc(Cl)c4)(C(F)(F)F)C3)cc2C)CO1 [Compound A139, 4-[(5S)-5-(3,5-dichlorophenyl)-5-(trifluoromethyl)-4H-isoxazol-3-yl]-2-methyl-N-[(4R)-2-(methylsulfamoyl)isoxazolidin-4-yl]benzamide]
≥ 80%: percent control (mortality, anti-feedant effect or growth inhibition) at 12.5 ppm (Spodoptera littoralis [1]) | mortality at 200 ppm (Myzus persicae) | mortality at 200 ppm (Thrips tabaci) | mortality at 200 ppm (Tetranychus urticae) | mortality at 200 ppm (Spodoptera littoralis [2]) | percent effect (mortality or growth inhibition) at 200 ppm (Euschistus heros) | percent effect (mortality or growth inhibition) at 200 ppm (Plutella xylostella) | percent effect (mortality or growth inhibition) at 200 ppm (Diabrotica balteata)

CCN(C)S(=O)(=O)N1C[C@@H](NC(=O)c2ccc(C3=NO[C@@](c4cc(Cl)c(F)c(Cl)c4)(C(F)(F)F)C3)cc2C)CO1 [Compound A140, 4-[(5S)-5-(3,5-dichloro-4-fluoro-phenyl)-5-(trifluoromethyl)-4H-isoxazol-3-yl]-N-[(4R)-2-[ethyl(methyl)sulfamoyl]isoxazolidin-4-yl]-2-methyl-benzamide]
≥ 80%: percent control (mortality, anti-feedant effect or growth inhibition) at 12.5 ppm (Spodoptera littoralis [1]) | mortality at 200 ppm (Myzus persicae) | mortality at 200 ppm (Thrips tabaci) | mortality at 200 ppm (Tetranychus urticae) | mortality at 200 ppm (Spodoptera littoralis [2]) | percent effect (mortality or growth inhibition) at 200 ppm (Euschistus heros) | percent effect (mortality or growth inhibition) at 200 ppm (Plutella xylostella) | percent effect (mortality or growth inhibition) at 200 ppm (Diabrotica balteata)

CCN(C)S(=O)(=O)N1C[C@@H](NC(=O)c2ccc(C3=NO[C@@](c4cc(Cl)cc(C(F)(F)F)c4)(C(F)(F)F)C3)cc2C)CO1 [Compound A141]
≥ 80%: percent control (mortality, anti-feedant effect or growth inhibition) at 12.5 ppm (Spodoptera littoralis [1]) | mortality at 200 ppm (Myzus persicae) | mortality at 200 ppm (Thrips tabaci) | mortality at 200 ppm (Tetranychus urticae) | mortality at 200 ppm (Spodoptera littoralis [2]) | percent effect (mortality or growth inhibition) at 200 ppm (Euschistus heros) | percent effect (mortality or growth inhibition) at 200 ppm (Plutella xylostella) | percent effect (mortality or growth inhibition) at 200 ppm (Diabrotica balteata)

CCN(C)S(=O)(=O)N1C[C@@H](NC(=O)c2ccc(C3=NO[C@@](c4cc(Cl)cc(Cl)c4)(C(F)(F)F)C3)cc2C)CO1 [Compound A142]
≥ 80%: percent control (mortality, anti-feedant effect or growth inhibition) at 12.5 ppm (Spodoptera littoralis [1]) | mortality at 200 ppm (Myzus persicae) | mortality at 200 ppm (Thrips tabaci) | mortality at 200 ppm (Tetranychus urticae) | mortality at 200 ppm (Spodoptera littoralis [2]) | percent effect (mortality or growth inhibition) at 200 ppm (Euschistus heros) | percent effect (mortality or growth inhibition) at 200 ppm (Plutella xylostella) | percent effect (mortality or growth inhibition) at 200 ppm (Diabrotica balteata)
